According to ChEMBL document CHEMBL1201862, “PubChem BioAssay data set” (2004):
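Following 48 hours of exposure in 96-well plates, responses at five concentrations were used to interpolate endpoints linearly. At the GI50, growth is halved.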 The source made the active and inactive calls. Rule as the data show it: active = GI50 up to about 1.1 µM and inactive = higher.

Columns and labels:
Assay in all cases: NCI anticancer screen, dose series, 48 h
[1] = system: NCI-H522
[2] = system: SR
[3] = system: SN12C
[4] = system: CAKI-1
[5] = system: HOP-92
[6] = system: TK-10
[7] = system: HCC 2998
[8] = system: OVCAR-8
[9] = system: SF-295
[10] = system: OVCAR-3
[11] = system: HOP-62
[12] = system: UACC-62
[13] = system: U-251
[14] = system: OVCAR-4
[15] = system: NCI-H460
[16] = system: SW-620
[17] = system: OVCAR-5
[18] = system: NCI/ADR-RES
[19] = system: DU-145

Measured: GI50

Cc1ccc(NC(=O)COC(=O)c2cccc3c(=O)c4ccccc4[nH]c23)cc1
inactive: [1] 9.29 µM | [2] 13 µM | [3] 32.1 µM | [4] 29.2 µM | [5] 82.8 µM | [6] 22 µM | [7] 37.6 µM | [8] 35.3 µM | [9] 35.7 µM | [10] 54 µM | [11] 60.5 µM | [12] 30.6 µM | [13] 29.4 µM | [14] 48.3 µM | [15] 35.2 µM | [16] 21.5 µM

ClCCCc1ccccc1C1=NCCc2ccccc21
inactive: [1] 25.5 µM | [17] > 100 µM | [3] 48.4 µM | [4] > 100 µM | [5] 81.1 µM | [18] > 100 µM | [19] > 100 µM | [6] > 100 µM | [7] 40.3 µM | [8] 24.9 µM | [9] > 100 µM | [10] > 100 µM | [11] > 100 µM | [12] 56.2 µM | [13] 25.8 µM | [14] 51.5 µM | [15] 43.9 µM | [16] > 100 µM

CC(=O)N1c2ccccc2N(C(C)=O)C1c1ccc(C2N(C(C)=O)c3ccccc3N2C(C)=O)[nH]1
inactive: [1] > 100 µM | [17] > 100 µM | [2] > 100 µM | [3] > 100 µM | [4] > 100 µM | [5] > 100 µM | [6] > 100 µM | [7] > 100 µM | [8] > 100 µM | [9] > 100 µM | [10] > 100 µM | [11] > 100 µM | [12] > 100 µM | [13] > 100 µM | [14] > 100 µM | [15] > 100 µM | [16] > 100 µM

CC1CN(c2ccc(Cl)cc2)CC(C)OC(=O)O1 (stereo not drawn)
inactive: [1] > 100 µM | [17] > 100 µM | [2] > 100 µM | [3] > 100 µM | [4] > 100 µM | [5] > 100 µM | [6] > 100 µM | [7] > 100 µM | [8] > 100 µM | [9] > 100 µM | [10] > 100 µM | [11] > 100 µM | [12] > 100 µM | [13] > 100 µM | [14] > 100 µM | [15] > 100 µM | [16] > 100 µM
